Like-named read-outs stand apart in the source and are kept apart here.
Experiments:
Assay type in all cases: cell-based
[1] = test system: promastigote forms of L. major; assay: Leishmania major promastigote growth inhibition assay (Alamar Blue); details: promastigotes, 44 hours + 4 hours Alamar Blue, read-out: IC50: I Org. promastigote Growth L. major, 2 d
Excerpt: Example 108. Leishmania major Promastigote Growth Inhibition Assay
The promastigote assay is a microtiter plate drug sensitivity prescreen assay used to determine antileishmanial activity of candidate drugs against promastigote forms of L. major. (Shadow et al., PLOS Neglected Tropical Diseases, 2009, e311.) Alamar Blue, or resazurin, is a non-fluorescent indicator dye that is converted to bright red-fluorescent resorufin via the activity of mitochondrial reductases. As the activity of mitochondrial reductases is reduced in cells that are dead or dying, and the intensity of the fluorescence is relative to cell number, a test compound that kills or inhibits growth of a particular target cell, such as L. major, will result in a lower production of fluorescent signal. Pre-dosed microtiter drug plates for use in the promastigote drug prescreen assay were produced using sterile 384-well black optical bottom tissue culture plates (Nunc Cat #12-565-344). Candidate drugs were diluted in dimethyl sulfoxide in four 96-well plates to either 10,000 ng/ml or 1,000 ng/ml, and 4.25 μL of diluted drug was subsequently dispensed into each well of a 384-well plate. Duplicate 384 well plates were made at each test concentration (10,000 ng/mL and 1,000 ng/mL) and amphotericin B was used as a batch control. The Tecan EVO Freedom liquid handling system (Tecan US, Inc., Durham, N.C.) was used to produce all drug assay plates and conduct all pipetting operations for this assay. L. major parasites were cultured in Schneider's medium (Lonza Cat #04-351Q) supplemented with 20% heat inactivated FBS (Invitrogen Cat #16140-089). Promastigotes in early log growth phase were harvested from culture, counted, suspended at 1.32×10^5 cells/mF and 5,000 promastigotes were dispensed into each well of the 384 well plate in a volume of 38.8 μL. The 384 well plates were subsequently incubated at 28° C. for 44 hours. 8.4 μF of Alamar Blue (Promega, Cat #G8081) was added to each well, the plates were subsequently incubated at 28° C. and 5% CO2 for 4 hours and then examined for the relative fluorescence units (RFU) per well using the Tecan Genios Plus (Tecan US, Inc., Durham, N.C.) with excitation set at 560 nm and emission set at 590 nm. The relative fluorescence from each well was used to determine the percent growth inhibition of each candidate compound tested. Compounds with 50% or greater inhibition of growth were selected for further analysis to determine IC50 values.

[2] = test system: L. infantum MHOM/MA(BE)/67 amastigotes in primary peritoneal mouse macrophages; assay: Leishmania infantum intracellular amastigote assay in mouse macrophages; details: Macrophage, 120 h
Description: Example 111. Leishmania infantum Intracellular Amastigote Assay in Mouse Macrophages
L. infantum MHOM/MA(BE)/67 amastigotes were collected from the spleen of an infected donor hamster and used to infect primary peritoneal mouse macrophages. (Kaiser, M., Maes, L., Tadoori, L. P., Spangenberg, T., Ioset, J.-R. J. Biomol. Screen. 2015 20(5), 634-35.) To determine in vitro antileishmanial activity, 3×10^4 macrophages were seeded in each well of a 96-well plate. Culture medium was RPMI-1640 supplemented with L-glutamine (20 mM), 16.5 mM sodium hydrogen carbonate, and 10% fetal calf serum (FCS). After 2 d of outgrowth, 5×10^5 amastigotes/well were added and incubated for 2 h at 37° C. Prediluted samples to be tested were subsequently added, and the plates were further incubated for 5 d at 37° C. and 5% CO2. Total parasite burdens in the well were microscopically assessed after Giemsa staining and expressed as a percentage of the total burden in the blank controls without compound. In treated wells with high amastigote burdens, an overall estimate of the total burden per well was made without discrimination between the number of infected macrophages and the number of amastigotes per infected cell. In treated wells with low burdens, exact counting was performed. The 50% inhibitory concentrations (IC50s) were then generated for each dose response test using GraphPad Prism (GraphPad Software Inc., San Diego, Calif.) using the nonlinear regression (sigmoidal dose-response/variable slope) equation.

[3] = test system: bloodstream forms of T. b. rhodesiense STIB 900; assay: T. brucei rhodesiense STIB 900 growth inhibition assay; details: Trypanosoma brucei, 72 h
Excerpt: Example 110. T. brucei rhodesiense STIB 900 Growth Inhibition Assay
The parasite strain used in this assay was isolated in 1982 from a human patient in Tanzania and after several mouse passages cloned and adapted to axenic culture conditions, ((a) Baltz, T., D. Baltz, C. Giroud, and J. Crockett. EMBO Journal, 1985, 4:1273-1277. (b) Thuita, J. K., S. M. Karanja, T. Wenzler, R. E. Mdachi, J. M. Ngotho, J. M. Kagira, R. Tidwell, and R. Brun. Acta Tropica 2008, 108:6-10.) Minimum Essential Medium (50 μl) supplemented with 25 mM HEPES, 1 g/l additional glucose, 1% MEM non-essential amino acids (100×), 0.2 mM 2-mercaptoethanol, 1 mM Na-pyruvate and 15% heat inactivated horse serum was added to each well of a 96-well microtiter plate. Serial drug dilutions of seven 3-fold dilution steps covering a range from 90 to 0.123 μg/ml were prepared. Then 10^4 bloodstream forms of T. b. rhodesiense STIB 900 in 50 μl was added to each well and the plate incubated at 37° C. under a 5% CO2 atmosphere for 72 h. 10 μl Alamar Blue (resazurin, 12.5 mg in 100 ml double-distilled water) was then added to each well and incubation continued for a further 2-4 h, (Raz, B., M. Iten, Y. Grether-Buhler, R. Kaminsky, and R. Brun. Acta Trap 1997, 68:139-47.) Then the plates were read with a Spectramax Gemini XS microplate fluorometer (Molecular Devices Cooperation, Sunnyvale, Calif., USA) using an excitation wave length of 536 nm and an emission wave length of 588 nm. Data were analyzed using the microplate reader software Softmax Pro (Molecular Devices Cooperation, Sunnyvale, Calif., USA).

[4] = test system: IL3000 T. congolense (drug sensitive) strain; assay: In vitro Alamar Blue 72 h drug sensitivity assay for T. congolense
Description: Example 106. In Vitro Alamar Blue 72 h Drug Sensitivity Assay for T. congolense
Compounds were tested in vitro for chemotherapeutic potency against the IL3000 T. congolense (drug sensitive) strain, using the Alamar Blue assay with several modifications. Test compounds were prepared as 10 mg/mL DMSO stocks for each assay run. Compounds were assayed in at least three separate, independent test runs and an 11-point dilution curve was used to determine the IC50 values. Bloodstream form trypanosomes were supported in HMI media containing 20% bovine serum and were incubated with test compounds for 69 h at 34° C. in a humidified atmosphere containing 5% CO2. Thereafter, 10 μL of Resazurin dye (12.5 mg in 100 mL of phosphate buffered saline, Sigma-Aldrich, Buchs, Switzerland) were added for an additional 3 h. Plates were then read using a fluorescent plate reader (Spectramax, Gemini XS, Bucher Biotec, Basel, Switzerland) using an excitation wavelength of 536 nm and an emission wavelength of 588 nm. Data points were averaged to generate sigmoidal dose-response curves and IC50 values were determined using Softmax Pro 5.2 software.

[5] = amastigotes in primary peritoneal mouse macrophages, 5 d, Giemsa staining, read-out: Inhibition of Organism Growth in Leishmania infantum MHOM/MA/BE/67, 5 d
[6] = bloodstream forms, Alamar Blue, protocol of Example 110, read-out: IC50: I Org. Growth T. brucei rhodesiense STIB 900, 3 d
[7] = Trypanosoma congolense; read-out: inhibition of T. congolense IL-3000 growth at a concentration of 1.0 μM (classes D, E)

SMILES	IC50 [2, 5]	IC50 [1]	IC50 [3, 6]	inhibition at 1 µM [4, 7]	other results
CCn1nnc(C(=O)Nc2ccc3c(c2)B(O)OC3)c1C [Example 46, 1-ethyl-N-(1-hydroxy-1,3-dihydrobenzo[c][1,2]oxaborol-6-yl)-5-methyl-1H-1,2,3-triazole-4-carboxamide]	–	2510 to 20000 nM	–	–	–
O=C(Nc1ccc2c(c1)B(O)OC2)c1nnn(CC2CCC2)c1C(F)(F)F [Example 47, 1-(cyclobutylmethyl)-N-(1-hydroxy-1,3-dihydrobenzo[c][1,2]oxaborol-6-yl)-5-(trifluoromethyl)-1H-1,2,3-triazole-4-carboxamide]	–	< 600 nM	–	–	–
Cn1nc(-c2cccnc2)nc1C(=O)Nc1ccc2c(c1)B(O)OC2 [Example 78b, N-(1-hydroxy-1,3-dihydrobenzo[c][1,2]oxaborol-6-yl)-1-methyl-3-(pyridin-3-yl)-1H-1,2,4-triazole-5-carboxamide]	–	–	–	–	IC50 ([2]; read-out: Inhibition of Organism Growth in Leishmania infantum MHOM/MA/BE/67, 5 d [uM]): 20 to 100 µM; IC50 ([3]; read-out: IC50: I Org. Growth T. brucei rhodesiense STIB 900, 3 d [uM]): 0.31 to 10 µM; inhibition at 1 µM ([4]; Trypanosoma congolense, read-out: inhibition of T. congolense IL-3000 growth at a concentration of 1.0 μM (classes D, E)): > 75%

Further lines, with some results ahead:

IC50 [2, 5]	SMILES	IC50 [1]	IC50 [3, 6]	inhibition at 1 µM [4, 7]	other results
3 to 19.9 µM	Cn1nc(C(=O)Nc2ccc3c(c2)B(O)OC3)nc1-c1ncccc1Cl [Example 76, 5-(3-Chloropyridin-2-yl)-N-(1-hydroxy-1,3-dihydrobenzo[c][1,2]oxaborol-6-yl)-1-methyl-1H-1,2,4-triazole-3-carboxamide]	–	0.1 to 0.3 µM	> 75%	–
3 to 19.9 µM	Cn1nc(C(=O)Nc2ccc3c(c2)B(O)OC3)nc1-c1ccc(Cl)cn1 [Example 77, 5-(5-Chloropyridin-2-yl)-N-(1-hydroxy-1,3-dihydrobenzo[c][1,2]oxaborol-6-yl)-1-methyl-1H-1,2,4-triazole-3-carboxamide]	–	0.1 to 0.3 µM	> 75%	–
20 to 100 µM	Cn1nc(C(=O)Nc2ccc3c(c2)B(O)OC3(C)C)nc1-c1ccccn1 [Example 79]	–	–	> 75%	IC50 ([3]; RHODESIENSE|STIB900, bloodstream forms, Alamar Blue, protocol of Example 110, read-out: IC50: I Org. Growth T. brucei rhodesiense STIB 900, 3 d): 0.31 to 10 µM

From patent publication US11691992B2 (Anacor Pharmaceuticals, Inc., priority 2017, dated 2023)
